From patent US6387921B1 (dated 2002)

- melting point: 270 °C
Compound: CC1(C)[C@H]2Cc3c(N)cccc3[C@]1(C)CCN2CCOCc1c(F)cccc1F.Cl.Cl
